Source: patent publication US20030225152A1, “3-(Arylamino)methylene-1, 3-dihydro-2h-indol-2-ones as kinase inhibitors” (priority 2001, published 2003)

What follows are compounds tested on VEGF induced increases in intracellular calcium levels in HUVEC (human umbilical vein endothelial cells) (assay: VEGF Stimulated Ca++ Signal in vitro (FLIPR)). Settings: 10 μM, VEGF 5 ng/mL.
Type: cell-based
Method: VEGF Stimulated Ca^++ Signal in vitro
Automated FLIPR (Fluorometric Imaging Plate Reader) technology was used to screen for inhibitors of VEGF induced increases in intracellular calcium levels in fluorescent dye loaded endothelial cells. HUVEC (human umbilical vein endothelial cells) (Clonetics) were seeded in 96-well fibronectin coated black-walled plates overnight at 37° C./5%CO2. Cells were loaded with calcium indicator Fluo-4 for 45 minutes at 37° C. Cells were washed 4 times (Original Cell Wash, Labsystems) to remove extracellular dye. Test compounds were reconstituted in 100% DMSO and added to the cells to give a final DMSO concentration of 0.1%. For screening, cells were pre-incubated with test agents for 30 minutes, at a single concentration (10 μM) or at concentrations ranging from 0.01 to 10.0 μM followed by VEGF stimulation (5 ng/mL). Changes in fluorescence at 516 nm were measured simultaneously in all 96 wells using a cooled CCD camera. Data were generated by determining max-min fluorescence levels for unstimulated, stimulated, and drug treated samples. IC50 values for test compounds were calculated from % inhibition of VEGF stimulated responses in the absence of inhibitor.
`O=C1Nc2ccc(F)cc2C1=CNc1ccc(N2CCCCC2)cc1` [Example 221] was tested, and the “VEGF Stimulated Ca^++ signal assay % inhibition @ 10 μM” value was 97.59%.

Same assay, conditions: 0.01 to 10.0 μM, VEGF 5 ng/mL
With `O=C1Nc2ccc(F)cc2C1=CNc1ccc(N2CCCCC2)cc1` [Example 221] the IC50 was 0.93 µM.

Same assay, conditions: Homo sapiens, 10 μM, VEGF 5 ng/mL
In the case of `Cc1ccc(NC=C2C(=O)Nc3ccc(Cl)cc32)cc1C` [Example 69, 3-[(3,4-Dimethylphenylamino)-methylene]-5-chloro-1,3-dihydro-indol-2-one], the inhibition at 10 µM is reported as -10.7%.
With `COc1cc(NC=C2C(=O)Nc3ccc(Cl)cc32)cc(OC)c1` [Example 75, 3-[(3,5-Dimethoxyphenylamino)-methylene]-5-chloro-1,3-dihydro-indol-2-one] the inhibition at 10 µM was -18%.

The compounds below were run against T1, cytoplasmic domain of the human VEGF receptor (VEGFR-2) (Homo sapiens, UniProt P35968) (assay: KDR Assay). Settings: His-VEGFR-2; 3.6 μM ATP.
T1 construct: The cytoplasmic domain of the human VEGF receptor (VEGFR-2) was expressed as a Histidine-tagged fusion protein; Histidine tag
T1 sequence (P35968 786-1356): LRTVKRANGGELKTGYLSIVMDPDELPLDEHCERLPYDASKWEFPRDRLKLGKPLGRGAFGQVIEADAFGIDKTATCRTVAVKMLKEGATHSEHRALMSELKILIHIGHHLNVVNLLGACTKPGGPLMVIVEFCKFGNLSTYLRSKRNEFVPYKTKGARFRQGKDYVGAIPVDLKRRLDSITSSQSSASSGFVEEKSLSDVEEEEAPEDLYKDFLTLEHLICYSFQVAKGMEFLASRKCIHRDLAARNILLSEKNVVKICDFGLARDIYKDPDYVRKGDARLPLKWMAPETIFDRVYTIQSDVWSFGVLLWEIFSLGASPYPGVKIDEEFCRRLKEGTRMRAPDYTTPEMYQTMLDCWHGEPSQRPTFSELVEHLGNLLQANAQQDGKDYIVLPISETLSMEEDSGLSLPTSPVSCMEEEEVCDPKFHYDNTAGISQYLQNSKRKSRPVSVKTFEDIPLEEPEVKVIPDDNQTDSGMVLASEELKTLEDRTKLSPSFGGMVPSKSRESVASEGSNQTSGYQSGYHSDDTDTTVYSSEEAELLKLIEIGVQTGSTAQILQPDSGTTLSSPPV
Type: biochemical
Method: The cytoplasmic domain of the human VEGF receptor (VEGFR-2) was expressed as a Histidine-tagged fusion protein following infection of insect cells using an engineered baculovirus. His-VEGFR-2 was purified to homogeneity, as determined by SDS-PAGE, using nickel resin chromatography. Kinase assays were performed in 96 well microtiter plates that were coated overnight with 30 μg of poly-Glu-Tyr (4:1) in 10 mM Phosphate Buffered Saline (PBS), pH 7.2-7.4. The plates were incubated with 1% BSA and then washed four times with PBS prior to starting the reaction. Reactions were carried out in 120 μL reaction volumes containing 3.6 μM ATP in kinase buffer (50 mM Hepes buffer pH 7.4, 20 mM MgCl2, 0.1 mM MnCl2 and 0.2 mM Na3VO4). Test compounds were reconstituted in 100% DMSO and added to the reaction to give a final DMSO concentration of 5%. Reactions were initiated by the addition 0.5 ng of purified protein. Following a ten minute incubation at 25° C., the reactions were washed four times with PBS containing 0.05% Tween-20. 100 μl of a monoclonal anti-phosphotyrosine antibody-peroxidase conjugate was diluted 1:10000 in PBS-Tween-20 and added to the wells for 30 minutes. Following four washes with PBS-Tween-20, 100 μl of O-phenylenediamine Dihydrochloride in Phosphate-citrate buffer, containing urea hydrogen peroxide, was added to the wells for 7 minutes as a colorimetric substrate for the peroxidase. The reaction was terminated by the addition of 100 μl of 2.5N H2SO4 to each well and read using a microplate ELISA reader set at 492 nm. IC50 values for compound inhibition were calculated directly from graphs of optical density (arbitrary units) versus compound concentration following subtraction of blank values.
`CN1CCCC(COc2ccc(NC=C3C(=O)Nc4cc(F)ccc43)cc2)C1` (stereo not shown) [Example 279, 6-Fluoro-3-{[4-(1-methyl-piperidin-3-ylmethoxy)-phenylamino]-methylene}-1,3-dihydro-indol-2-one] showed an IC50 of 0.16 µM.
With `O=C1Nc2ccc(F)cc2C1=CNc1ccc(CCN2CCCCC2)cc1` [Example 288, 5-Fluoro-3-{[4-(2-piperidin-1-yl-ethyl)-phenylamino]-methylene}-1,3-dihydro-indol-2-one] the IC50 was 0.33 µM.
`CN1CCCC(COc2ccc(NC=C3C(=O)Nc4ccc(F)cc43)cc2)C1` (stereo not shown) [Example 282, 5-Fluoro-3-{[4-(1-methyl-piperidin-3-ylmethoxy)-phenylamino]-methylene}-1,3-dihydro-indol-2-one] was tested, and the IC50 was 0.33 µM.
Work on `Cc1cccc2c1C(=CNc1ccc(OCCN3CCCCC3)cc1)C(=O)N2` [Example 252, 4-Methyl-3-{[4-(2-piperidin-1-yl-ethoxy)-phenylamino]-methylene}-1,3-dihydro-indol-2-one] yielded an IC50 of 0.15 µM.
For `CN1CCCC(COc2ccc(NC=C3C(=O)Nc4ccccc43)cc2)C1` (stereo not shown) [Example 280, 3-{[4-(1-Methyl-piperidin-3-ylmethoxy)-phenylamino]-methylene}-1,3-dihydro-indol-2-one], the IC50 was 0.46 µM.
With `Cc1cccc2c1C(=CNc1ccc(OCCCCN3CCCCC3)cc1)C(=O)N2` [Example 246, 4-Methyl-3-{[4-(4-piperidin-1-yl-butoxy)-phenylamino]-methylene}-1,3-dihydro-indol-2-one] the IC50 was 0.09 µM.
`O=C1Nc2cc(F)ccc2C1=CNc1ccc(CCN2CCCCC2)cc1` [Example 289, 6-Fluoro-3-{[4-(2-piperidin-1-yl-ethyl)-phenylamino]-methylene}-1,3-dihydro-indol-2-one] showed an IC50 of 0.26 µM.
Work on `Cc1cccc2c1C(=CNc1ccc(CCN3CCOCC3)cc1)C(=O)N2` [Example 308, 4-Methyl-3-{[4-(2-morpholin-4-yl-ethyl)-phenylamino]-methylene}-1,3-dihydro-indol-2-one] yielded an IC50 of 0.12 µM.
For `O=C1Nc2ccc(F)cc2C1=CNc1ccc(CN2CCOCC2)cc1` [Example 294, 5-Fluoro-3-[(4-morpholin-4-ylmethyl-phenylamino)-methylene]-1,3-dihydro-indol-2-one], the IC50 was 0.38 µM.
`O=C1Nc2cc(F)ccc2C1=CNc1ccc(CN2CCOCC2)cc1` [Example 295, 6-Fluoro-3-[(4-morpholin-4-ylmethyl-phenylamino)-methylene]-1,3-dihydro-indol-2-one] gave an IC50 of 0.18 µM.
`Cc1cccc2c1C(=CNc1ccc(NCCCN3CCOCC3)cc1)C(=O)N2` [Example 296, 4-Methyl-3-{[4-(3-morpholin-4-yl-propylamino)-phenylamino]-methylene}-1,3-dihydro-indol-2-one] showed an IC50 of 0.14 µM.
`Cc1cccc2c1C(=CNc1ccc(OCC3CCCN(C)C3)cc1)C(=O)N2` (stereo not shown) [Example 278, 4-Methyl-3-{[4-(1-methyl-piperidin-3-ylmethoxy)-phenylamino]-methylene}-1,3-dihydro-indol-2-one] was tested, and the IC50 was 0.08 µM.
`O=C1Nc2ccc(Cl)cc2C1=CNc1ccc(NCCCN2CCOCC2)cc1` [Example 299, 5-Chloro-3-{[4-(3-morpholin-4-yl-propylamino)-phenylamino]-methylene}-1,3-dihydro-indol-2-one] was tested, and the IC50 was 0.14 µM.
In the case of `Cc1cccc2c1C(=CNc1ccc(OCCN3CCCC3)cc1)C(=O)N2` [Example 270, 4-Methyl-3-{[4-(2-pyrrolidin-1-yl-ethoxy)-phenylamino]-methylene}-1,3-dihydro-indol-2-one], the IC50 is reported as 0.11 µM.
`O=C1Nc2cc(F)ccc2C1=CNc1ccc(NCCCN2CCOCC2)cc1` [Example 298, 6-Fluoro-3-{[4-(3-morpholin-4-yl-propylamino)-phenylamino]-methylene}-1,3-dihydro-indol-2-one] gave an IC50 of 0.34 µM.
In the case of `O=C1Nc2ccc(F)cc2C1=CNc1ccc(CCN2CCOCC2)cc1` [Example 310, 5-Fluoro-3-{[4-(2-morpholin-4-yl-ethyl)-phenylamino]-methylene}-1,3-dihydro-indol-2-one], the IC50 is reported as 0.23 µM.
Work on `O=C1Nc2ccccc2C1=CNc1ccc(OCCN2CCCC2)cc1` [Example 272, 3-{[4-(2-Pyrrolidin-1-yl-ethoxy)-phenylamino]-methylene}-1,3-dihydro-indol-2-one] yielded an IC50 of 0.46 µM.
Work on `O=C1Nc2ccc(F)cc2C1=CNc1ccc(OCCN2CCCCC2)cc1` [Example 263, 5-Fluoro-3-{[4-(2-piperidin-1-yl-ethoxy)-phenylamino]-methylene}-1,3-dihydro-indol-2-one] yielded an IC50 of 0.36 µM.
`O=C1Nc2ccccc2C1=CNc1ccc(CN2CCCCC2)cc1` [Example 251, 3-[(4-Piperidin-1-ylmethyl-phenylamino)-methylene]-1,3-dihydro-indol-2-one] gave an IC50 of 0.14 µM.
With `O=C1Nc2cc(F)ccc2C1=CNc1ccc(CCN2CCOCC2)cc1` [Example 311, 6-Fluoro-3-{[4-(2-morpholin-4-yl-ethyl)-phenylamino]-methylene}-1,3-dihydro-indol-2-one] the IC50 was 0.1 µM.
Compound `O=C1Nc2ccccc2C1=CNc1ccc(CCN2CCOCC2)cc1` [Example 306, 3-{[4-(2-Morpholin-4-yl-ethyl)-phenylamino]-methylene}-1,3-dihydro-indol-2-one] has an IC50 of 0.62 µM.
`Cc1cccc2c1C(=CNc1ccc(CCN3CCCCC3)cc1)C(=O)N2` [Example 286, 4-Methyl-3-{[4-(2-piperidin-1-yl-ethyl)-phenylamino]-methylene}-1,3-dihydro-indol-2-one] gave an IC50 of 0.04 µM.
Work on `Cc1cccc2c1C(=CNc1ccc(CN3CCOCC3)cc1)C(=O)N2` [Example 292, 4-Methyl-3-[(4-morpholin-4-ylmethyl-phenylamino)-methylene]-1,3-dihydro-indol-2-one] yielded an IC50 of 0.09 µM.
Compound `O=C1Nc2ccc(F)cc2C1=CNc1ccc(OCCN2CCCC2)cc1` [Example 274, 5-Fluoro-3-{[4-(2-pyrrolidin-1-yl-ethoxy)-phenylamino]-methylene}-1,3-dihydro-indol-2-one] has an IC50 of 0.21 µM.
In the case of `O=C1Nc2cc(F)ccc2C1=CNc1ccc(OCCN2CCCCC2)cc1` [Example 253, 6-Fluoro-3-{[4-(2-piperidin-1-yl-ethoxy)-phenylamino]-methylene}-1,3-dihydro-indol-2-one], the IC50 is reported as 0.17 µM.
`O=C1Nc2cc(F)ccc2C1=CNc1ccc(CN2CCCCC2)cc1` [Example 259, 6-Fluoro-3-[(4-piperidin-1-ylmethyl-phenylamino)-methylene]-1,3-dihydro-indol-2-one] gave an IC50 of 0.3 µM.
Work on `CCN(CC)CCOc1ccc(NC=C2C(=O)Nc3cccc(C)c32)cc1` [Example 264, 3-{[4-(2-Diethylamino-ethoxy)-phenylamino]-methylene}-4-methyl-1,3-dihydro-indol-2-one] yielded an IC50 of 0.07 µM.
In the case of `O=C1Nc2ccccc2C1=CNc1ccc(OCCN2CCCCC2)cc1` [Example 254, 3-{[4-(2-Piperidin-1-yl-ethoxy)-phenylamino]-methylene}-1,3-dihydro-indol-2-one], the IC50 is reported as 0.5 µM.
`O=C1Nc2ccccc2C1=CNc1ccc(NCCCN2CCOCC2)cc1` [Example 297, 3-{[4-(3-Morpholin-4-yl-propylamino)-phenylamino]-methylene}-1,3-dihydro-indol-2-one] gave an IC50 of 0.39 µM.
`O=C1Nc2ccc(F)cc2C1=CNc1ccc(NCCCN2CCOCC2)cc1` [Example 300, 5-Fluoro-3-{[4-(3-morpholin-4-yl-propylamino)-phenylamino]-methylene}-1,3-dihydro-indol-2-one] showed an IC50 of 0.42 µM.
